{"source": "ChEMBL document CHEMBL1201862", "about": "“PubChem BioAssay data set” (2004)", "experiment_in_all_cases": "DTP human tumour cell line panel, 48 h", "key": {"OVCAR-8": {"test_system": "OVCAR-8"}, "ACHN": {"test_system": "ACHN"}, "SW-620": {"test_system": "SW-620"}, "DU-145": {"test_system": "DU-145"}, "SNB-19": {"test_system": "SNB-19"}, "PC-3": {"test_system": "PC-3"}, "EKVX": {"test_system": "EKVX"}, "SR": {"test_system": "SR"}, "Malme-3M": {"test_system": "Malme-3M"}, "A498": {"test_system": "A498"}, "OVCAR-4": {"test_system": "OVCAR-4"}, "MDA-MB-435": {"test_system": "MDA-MB-435"}, "OVCAR-3": {"test_system": "OVCAR-3"}, "HL-60": {"test_system": "HL-60"}, "SNB-75": {"test_system": "SNB-75"}, "SF-268": {"test_system": "SF-268"}, "HOP-92": {"test_system": "HOP-92"}, "KM12": {"test_system": "KM12"}, "HOP-62": {"test_system": "HOP-62"}, "MDA-N": {"test_system": "MDA-N"}}, "note": "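Following 48 hours of exposure in 96-well plates, responses at five concentrations were used to interpolate endpoints linearly. Here, GI50 denotes the concentration required for 50% inhibition of growth.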 Activity calls are given as the source filed them. Cut-off read from the data, not from the text of the source: active = GI50 up to about 1.1 µM and inactive = higher.", "data": [{"smiles": "Cc1nc2[nH]ccn2c(=O)c1CCCl", "values": [{"measurement": "GI50", "setting": "OVCAR-8", "result": "26.7 µM (inactive)"}, {"measurement": "GI50", "setting": "ACHN", "result": "23.1 µM (inactive)"}, {"measurement": "GI50", "setting": "SW-620", "result": "17.3 µM (inactive)"}, {"measurement": "GI50", "setting": "DU-145", "result": "23.6 µM (inactive)"}, {"measurement": "GI50", "setting": "SNB-19", "result": "57.1 µM (inactive)"}, {"measurement": "GI50", "setting": "PC-3", "result": "49.7 µM (inactive)"}, {"measurement": "GI50", "setting": "EKVX", "result": "> 100 µM (inactive)"}, {"measurement": "GI50", "setting": "SR", "result": "24.2 µM (inactive)"}, {"measurement": "GI50", "setting": "Malme-3M", "result": "25.6 µM (inactive)"}, {"measurement": "GI50", "setting": "A498", "result": "19 µM (inactive)"}, {"measurement": "GI50", "setting": "OVCAR-4", "result": "20.1 µM (inactive)"}, {"measurement": "GI50", "setting": "MDA-MB-435", "result": "> 10 µM (inactive)"}, {"measurement": "GI50", "setting": "OVCAR-3", "result": "25.2 µM (inactive)"}, {"measurement": "GI50", "setting": "HL-60", "result": "25.4 µM (inactive)"}, {"measurement": "GI50", "setting": "SNB-75", "result": "39.3 µM (inactive)"}, {"measurement": "GI50", "setting": "SF-268", "result": "36.4 µM (inactive)"}, {"measurement": "GI50", "setting": "HOP-92", "result": "21.4 µM (inactive)"}, {"measurement": "GI50", "setting": "KM12", "result": "20.4 µM (inactive)"}, {"measurement": "GI50", "setting": "HOP-62", "result": "23.6 µM (inactive)"}, {"measurement": "GI50", "setting": "MDA-N", "result": "21.9 µM (inactive)"}]}, {"smiles": "O=C1c2cccc3cc4ccccc4c(c23)C(=O)N1CCCNCCNCCCN1C(=O)c2cccc3cc4ccccc4c(c23)C1=O", "values": [{"measurement": "GI50", "setting": "OVCAR-8", "result": "0.0107 µM (active)"}, {"measurement": "GI50", "setting": "ACHN", "result": "< 0.0227 µM (active)"}, {"measurement": "GI50", "setting": "SW-620", "result": "< 0.01 µM (active)"}, {"measurement": "GI50", "setting": "DU-145", "result": "0.475 µM (active)"}, {"measurement": "GI50", "setting": "SNB-19", "result": "0.217 µM (active)"}, {"measurement": "GI50", "setting": "PC-3", "result": "0.152 µM (active)"}, {"measurement": "GI50", "setting": "EKVX", "result": "1.15 µM (inactive)"}, {"measurement": "GI50", "setting": "SR", "result": "< 0.01 µM (active)"}, {"measurement": "GI50", "setting": "Malme-3M", "result": "0.211 µM (active)"}, {"measurement": "GI50", "setting": "A498", "result": "0.526 µM (active)"}, {"measurement": "GI50", "setting": "OVCAR-4", "result": "0.129 µM (active)"}, {"measurement": "GI50", "setting": "MDA-MB-435", "result": "0.0421 µM (active)"}, {"measurement": "GI50", "setting": "OVCAR-3", "result": "0.353 µM (active)"}, {"measurement": "GI50", "setting": "HL-60", "result": "< 0.0171 µM (active)"}, {"measurement": "GI50", "setting": "SNB-75", "result": "0.0263 µM (active)"}, {"measurement": "GI50", "setting": "SF-268", "result": "0.196 µM (active)"}, {"measurement": "GI50", "setting": "HOP-92", "result": "1 µM (active)"}, {"measurement": "GI50", "setting": "KM12", "result": "0.106 µM (active)"}, {"measurement": "GI50", "setting": "HOP-62", "result": "0.0203 µM (active)"}, {"measurement": "GI50", "setting": "MDA-N", "result": "0.0546 µM (active)"}]}, {"smiles": "O=C1CCCc2cc3c(cc21)CC1(C3)Cc2ccc3c(c2C1)C(=O)CCC3", "note": "(stereo not given)", "values": [{"measurement": "GI50", "setting": "OVCAR-8", "result": "16.4 µM (inactive)"}, {"measurement": "GI50", "setting": "ACHN", "result": "5.18 µM (inactive)"}, {"measurement": "GI50", "setting": "SW-620", "result": "15.6 µM (inactive)"}, {"measurement": "GI50", "setting": "DU-145", "result": "39.8 µM (inactive)"}, {"measurement": "GI50", "setting": "SNB-19", "result": "67.6 µM (inactive)"}, {"measurement": "GI50", "setting": "PC-3", "result": "21.7 µM (inactive)"}, {"measurement": "GI50", "setting": "EKVX", "result": "46.7 µM (inactive)"}, {"measurement": "GI50", "setting": "SR", "result": "7.45 µM (inactive)"}, {"measurement": "GI50", "setting": "Malme-3M", "result": "9.4 µM (inactive)"}, {"measurement": "GI50", "setting": "A498", "result": "41.2 µM (inactive)"}, {"measurement": "GI50", "setting": "OVCAR-4", "result": "13.9 µM (inactive)"}, {"measurement": "GI50", "setting": "MDA-MB-435", "result": "4.91 µM (inactive)"}, {"measurement": "GI50", "setting": "OVCAR-3", "result": "15.9 µM (inactive)"}, {"measurement": "GI50", "setting": "HL-60", "result": "5.18 µM (inactive)"}, {"measurement": "GI50", "setting": "SNB-75", "result": "15.5 µM (inactive)"}, {"measurement": "GI50", "setting": "SF-268", "result": "21.9 µM (inactive)"}, {"measurement": "GI50", "setting": "HOP-92", "result": "21.3 µM (inactive)"}, {"measurement": "GI50", "setting": "KM12", "result": "14 µM (inactive)"}, {"measurement": "GI50", "setting": "HOP-62", "result": "67.9 µM (inactive)"}, {"measurement": "GI50", "setting": "MDA-N", "result": "5.18 µM (inactive)"}]}, {"smiles": "O=C1c2ccccc2-c2c1c1ccccc1c(=O)n2-c1cccnc1", "values": [{"measurement": "GI50", "setting": "OVCAR-8", "result": "31.8 µM (inactive)"}, {"measurement": "GI50", "setting": "ACHN", "result": "23.2 µM (inactive)"}, {"measurement": "GI50", "setting": "SW-620", "result": "20.2 µM (inactive)"}, {"measurement": "GI50", "setting": "DU-145", "result": "> 100 µM (inactive)"}, {"measurement": "GI50", "setting": "SNB-19", "result": "24.6 µM (inactive)"}, {"measurement": "GI50", "setting": "PC-3", "result": "> 54.3 µM (inactive)"}, {"measurement": "GI50", "setting": "EKVX", "result": "> 44.2 µM (inactive)"}, {"measurement": "GI50", "setting": "SR", "result": "5.53 µM (inactive)"}, {"measurement": "GI50", "setting": "Malme-3M", "result": "> 95.3 µM (inactive)"}, {"measurement": "GI50", "setting": "A498", "result": "> 10 µM (inactive)"}, {"measurement": "GI50", "setting": "OVCAR-4", "result": "> 49.3 µM (inactive)"}, {"measurement": "GI50", "setting": "MDA-MB-435", "result": "> 100 µM (inactive)"}, {"measurement": "GI50", "setting": "OVCAR-3", "result": "> 71.3 µM (inactive)"}, {"measurement": "GI50", "setting": "HL-60", "result": "> 10 µM (inactive)"}, {"measurement": "GI50", "setting": "SNB-75", "result": "49.1 µM (inactive)"}, {"measurement": "GI50", "setting": "SF-268", "result": "29.5 µM (inactive)"}, {"measurement": "GI50", "setting": "HOP-92", "result": "8.17 µM (inactive)"}, {"measurement": "GI50", "setting": "KM12", "result": "> 100 µM (inactive)"}, {"measurement": "GI50", "setting": "HOP-62", "result": "12.1 µM (inactive)"}, {"measurement": "GI50", "setting": "MDA-N", "result": "> 100 µM (inactive)"}]}, {"smiles": "C=C(C)[C@@H]1CC[C@]2(C)CC[C@]3(C)[C@H](CC[C@@H]4[C@@]5(C)CC[C@H](O)C(C)(C)[C@@H]5CC[C@]43C)[C@@H]12", "note": "[LUPEOL]", "values": [{"measurement": "GI50", "setting": "OVCAR-8", "result": "33.3 µM (inactive)"}, {"measurement": "GI50", "setting": "ACHN", "result": "> 55.1 µM (inactive)"}, {"measurement": "GI50", "setting": "SW-620", "result": "> 48.2 µM (inactive)"}, {"measurement": "GI50", "setting": "DU-145", "result": "> 100 µM (inactive)"}, {"measurement": "GI50", "setting": "SNB-19", "result": "> 47.3 µM (inactive)"}, {"measurement": "GI50", "setting": "PC-3", "result": "32.3 µM (inactive)"}, {"measurement": "GI50", "setting": "EKVX", "result": "72.9 µM (inactive)"}, {"measurement": "GI50", "setting": "SR", "result": "42.8 µM (inactive)"}, {"measurement": "GI50", "setting": "Malme-3M", "result": "> 89.3 µM (inactive)"}, {"measurement": "GI50", "setting": "A498", "result": "13.4 µM (inactive)"}, {"measurement": "GI50", "setting": "OVCAR-4", "result": "> 100 µM (inactive)"}, {"measurement": "GI50", "setting": "MDA-MB-435", "result": "19.4 µM (inactive)"}, {"measurement": "GI50", "setting": "OVCAR-3", "result": "> 55.1 µM (inactive)"}, {"measurement": "GI50", "setting": "HL-60", "result": "47.4 µM (inactive)"}, {"measurement": "GI50", "setting": "SNB-75", "result": "38.2 µM (inactive)"}, {"measurement": "GI50", "setting": "SF-268", "result": "> 55.7 µM (inactive)"}, {"measurement": "GI50", "setting": "HOP-92", "result": "36.1 µM (inactive)"}, {"measurement": "GI50", "setting": "KM12", "result": "> 67 µM (inactive)"}, {"measurement": "GI50", "setting": "HOP-62", "result": "> 58.3 µM (inactive)"}, {"measurement": "GI50", "setting": "MDA-N", "result": "32.7 µM (inactive)"}]}]}
